Laboratory results reported in publication PMC8500670, “A selective WDR5 degrader inhibits acute myeloid leukemia in patient-derived mouse models” (Science translational medicine, 2021).

Key:
Assay in all cases: biochemical
Design in all cases: GPCR, ion channel and transporter panel, per cent inhibition of binding, mean of four
5-HT1E = target: T1, 5-HT1E (Homo sapiens, UniProt P28566)
T1 construct: gene HTR1E
Procedure: (§1) We next assessed selectivity of MS67 against 22 protein methyltransferases (table S2) and a broad panel of common drug targets including 45 kinases (table S3) and 44 G protein–coupled receptors (GPCR), ion channels, and transporters (table S4). […] We subsequently determined that MS67 had moderate binding affinity (Ki = 1.0 ± 0.8 μM) to Sigma 2 receptor (fig. S10).

D4 = target: T2, D4 (Homo sapiens, UniProt P21917)
T2 construct: gene DRD4
Procedure: as §1

D5 = target: T3, D5 (Homo sapiens, UniProt P21918)
T3 construct: gene DRD5
Procedure: as §1

M3 = target: T4, M3 (Homo sapiens, UniProt P20309)
T4 construct: gene CHRM3
Procedure: as §1

H3 = target: T5, H3 (Homo sapiens, UniProt Q9Y5N1)
T5 construct: gene HRH3
Procedure: as §1

MOR = target: T6, MOR (Homo sapiens, UniProt P35372)
T6 construct: gene OPRM1
Procedure: as §1

NET = target: T7, NET (Homo sapiens, UniProt P23975)
T7 construct: gene SLC6A2
Procedure: as §1

SERT = target: T8, SERT (Homo sapiens, UniProt P31645)
T8 construct: gene SLC6A4
Procedure: as §1

5-HT2C = target: T9, 5-HT2C (Homo sapiens, UniProt P28335)
T9 construct: gene HTR2C
Procedure: as §1

Beta3 = target: T10, Beta3 (Homo sapiens, UniProt P13945)
T10 construct: gene ADRB3
Procedure: as §1

H1 = target: T11, H1 (Homo sapiens, UniProt P35367)
T11 construct: gene HRH1
Procedure: as §1

Alpha1A = target: T12, Alpha1A (Homo sapiens, UniProt P35348)
T12 construct: gene ADRA1A
Procedure: as §1

H4 = target: T13, H4 (Homo sapiens, UniProt Q9H3N8)
T13 construct: gene HRH4
Procedure: as §1

H2 = target: T14, H2 (Homo sapiens, UniProt P25021)
T14 construct: gene HRH2
Procedure: as §1

Sigma 1 = target: T15, Sigma 1 (Homo sapiens, UniProt Q99720)
T15 construct: gene SIGMAR1
Procedure: as §1

5-HT1B = target: T16, 5-HT1B (Homo sapiens, UniProt P28222)
T16 construct: gene HTR1B
Procedure: as §1

Alpha1B = target: T17, Alpha1B (Homo sapiens, UniProt P35368)
T17 construct: gene ADRA1B
Procedure: as §1

Alpha2C = target: T18, Alpha2C (Homo sapiens, UniProt P18825)
T18 construct: gene ADRA2C
Procedure: as §1

5-HT6 = target: T19, 5-HT6 (Homo sapiens, UniProt P50406)
T19 construct: gene HTR6
Procedure: as §1

5-HT7A = target: T20, 5-HT7A (Homo sapiens, UniProt P34969)
T20 construct: gene HTR7; isoform 7A
Procedure: as §1

M2 = target: T21, M2 (Homo sapiens, UniProt P08172)
T21 construct: gene CHRM2
Procedure: as §1

Alpha1D = target: T22, Alpha1D (Homo sapiens, UniProt P25100)
T22 construct: gene ADRA1D
Procedure: as §1

Alpha2B = target: T23, Alpha2B (Homo sapiens, UniProt P18089)
T23 construct: gene ADRA2B
Procedure: as §1

5-HT5A = target: T24, 5-HT5A (Homo sapiens, UniProt P47898)
T24 construct: gene HTR5A
Procedure: as §1

D2 = target: T25, D2 (Homo sapiens, UniProt P14416)
T25 construct: gene DRD2
Procedure: as §1

5-HT2B = target: T26, 5-HT2B (Homo sapiens, UniProt P41595)
T26 construct: gene HTR2B
Procedure: as §1

T8 sequence (P31645 whole entry): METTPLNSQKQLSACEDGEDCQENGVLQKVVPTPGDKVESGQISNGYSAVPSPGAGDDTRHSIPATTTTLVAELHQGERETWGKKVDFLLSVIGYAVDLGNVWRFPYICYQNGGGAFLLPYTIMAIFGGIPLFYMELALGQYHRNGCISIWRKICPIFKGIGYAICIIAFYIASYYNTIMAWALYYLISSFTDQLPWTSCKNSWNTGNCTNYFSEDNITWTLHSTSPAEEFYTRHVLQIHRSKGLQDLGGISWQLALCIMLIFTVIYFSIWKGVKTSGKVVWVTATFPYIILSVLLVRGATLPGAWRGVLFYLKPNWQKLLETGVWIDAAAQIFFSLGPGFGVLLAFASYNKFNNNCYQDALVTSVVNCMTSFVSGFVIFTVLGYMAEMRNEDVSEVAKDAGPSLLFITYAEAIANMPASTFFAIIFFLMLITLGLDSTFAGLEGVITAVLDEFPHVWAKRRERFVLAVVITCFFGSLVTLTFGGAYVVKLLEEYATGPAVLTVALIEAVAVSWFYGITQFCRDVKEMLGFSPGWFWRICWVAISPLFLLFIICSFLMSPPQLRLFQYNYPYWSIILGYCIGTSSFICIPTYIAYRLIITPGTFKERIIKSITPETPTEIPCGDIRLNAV
T9 sequence (P28335 whole entry): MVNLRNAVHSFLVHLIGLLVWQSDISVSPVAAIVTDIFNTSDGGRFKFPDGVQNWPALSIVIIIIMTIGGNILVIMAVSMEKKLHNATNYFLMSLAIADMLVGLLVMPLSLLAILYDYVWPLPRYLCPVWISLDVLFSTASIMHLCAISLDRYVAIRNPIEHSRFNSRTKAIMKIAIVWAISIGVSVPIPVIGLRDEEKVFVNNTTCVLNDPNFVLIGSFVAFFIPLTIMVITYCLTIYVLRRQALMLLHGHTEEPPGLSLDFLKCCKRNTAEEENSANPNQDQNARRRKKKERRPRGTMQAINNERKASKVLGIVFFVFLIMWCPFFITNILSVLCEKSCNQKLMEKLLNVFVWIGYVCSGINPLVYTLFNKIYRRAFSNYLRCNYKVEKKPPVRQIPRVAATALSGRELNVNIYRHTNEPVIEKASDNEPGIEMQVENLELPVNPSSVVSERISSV
T2 sequence (P21917 whole entry): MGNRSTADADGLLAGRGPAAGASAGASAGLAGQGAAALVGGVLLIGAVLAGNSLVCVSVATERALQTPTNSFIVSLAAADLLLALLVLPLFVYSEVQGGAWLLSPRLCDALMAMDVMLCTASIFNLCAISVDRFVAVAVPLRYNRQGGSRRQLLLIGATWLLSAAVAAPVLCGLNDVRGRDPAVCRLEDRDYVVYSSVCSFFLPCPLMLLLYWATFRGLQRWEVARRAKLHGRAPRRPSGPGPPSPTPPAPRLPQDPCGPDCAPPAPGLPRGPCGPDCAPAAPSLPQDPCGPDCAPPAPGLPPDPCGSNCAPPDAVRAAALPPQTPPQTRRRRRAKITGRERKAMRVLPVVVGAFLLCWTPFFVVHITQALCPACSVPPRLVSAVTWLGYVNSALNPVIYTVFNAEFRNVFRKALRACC
T5 sequence (Q9Y5N1 whole entry): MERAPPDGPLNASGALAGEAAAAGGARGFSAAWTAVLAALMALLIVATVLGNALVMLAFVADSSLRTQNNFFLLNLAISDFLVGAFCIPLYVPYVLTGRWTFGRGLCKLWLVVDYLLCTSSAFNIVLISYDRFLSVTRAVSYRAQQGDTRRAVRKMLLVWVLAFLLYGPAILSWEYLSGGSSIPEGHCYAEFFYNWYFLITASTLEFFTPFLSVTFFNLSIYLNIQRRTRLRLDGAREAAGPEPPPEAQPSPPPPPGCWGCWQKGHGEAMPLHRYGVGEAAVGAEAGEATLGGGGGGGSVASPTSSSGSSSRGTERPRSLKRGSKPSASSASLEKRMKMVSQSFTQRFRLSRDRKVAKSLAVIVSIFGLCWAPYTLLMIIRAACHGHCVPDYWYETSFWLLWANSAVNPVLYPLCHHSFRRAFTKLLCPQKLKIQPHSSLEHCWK
T26 sequence (P41595 whole entry): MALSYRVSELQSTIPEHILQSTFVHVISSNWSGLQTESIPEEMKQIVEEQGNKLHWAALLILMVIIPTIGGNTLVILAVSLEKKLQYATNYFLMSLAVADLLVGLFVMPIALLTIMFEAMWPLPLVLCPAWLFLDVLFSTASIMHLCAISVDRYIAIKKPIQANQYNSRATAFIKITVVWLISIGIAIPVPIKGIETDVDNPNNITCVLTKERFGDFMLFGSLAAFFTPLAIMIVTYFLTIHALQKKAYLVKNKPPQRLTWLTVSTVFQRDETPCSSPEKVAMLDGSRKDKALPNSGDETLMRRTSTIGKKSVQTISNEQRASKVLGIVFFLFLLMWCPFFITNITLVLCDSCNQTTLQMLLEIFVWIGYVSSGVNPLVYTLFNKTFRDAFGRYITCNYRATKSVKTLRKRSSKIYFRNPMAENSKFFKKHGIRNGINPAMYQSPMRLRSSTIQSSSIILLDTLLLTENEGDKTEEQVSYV
T17 sequence (P35368 whole entry): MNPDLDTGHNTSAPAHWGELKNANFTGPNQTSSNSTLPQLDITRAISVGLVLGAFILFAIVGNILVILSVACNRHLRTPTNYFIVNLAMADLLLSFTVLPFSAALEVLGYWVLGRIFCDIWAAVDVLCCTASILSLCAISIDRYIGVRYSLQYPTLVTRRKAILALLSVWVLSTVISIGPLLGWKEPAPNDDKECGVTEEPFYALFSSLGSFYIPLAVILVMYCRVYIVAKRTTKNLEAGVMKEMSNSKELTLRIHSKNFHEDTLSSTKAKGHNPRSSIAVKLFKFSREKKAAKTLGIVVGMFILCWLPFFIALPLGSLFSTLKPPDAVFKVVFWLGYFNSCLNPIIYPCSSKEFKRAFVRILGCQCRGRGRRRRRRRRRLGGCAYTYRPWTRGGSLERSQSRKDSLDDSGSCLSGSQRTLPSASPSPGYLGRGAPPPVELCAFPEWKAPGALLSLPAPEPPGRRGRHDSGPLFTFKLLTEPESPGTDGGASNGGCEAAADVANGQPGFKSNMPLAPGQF
T3 sequence (P21918 whole entry): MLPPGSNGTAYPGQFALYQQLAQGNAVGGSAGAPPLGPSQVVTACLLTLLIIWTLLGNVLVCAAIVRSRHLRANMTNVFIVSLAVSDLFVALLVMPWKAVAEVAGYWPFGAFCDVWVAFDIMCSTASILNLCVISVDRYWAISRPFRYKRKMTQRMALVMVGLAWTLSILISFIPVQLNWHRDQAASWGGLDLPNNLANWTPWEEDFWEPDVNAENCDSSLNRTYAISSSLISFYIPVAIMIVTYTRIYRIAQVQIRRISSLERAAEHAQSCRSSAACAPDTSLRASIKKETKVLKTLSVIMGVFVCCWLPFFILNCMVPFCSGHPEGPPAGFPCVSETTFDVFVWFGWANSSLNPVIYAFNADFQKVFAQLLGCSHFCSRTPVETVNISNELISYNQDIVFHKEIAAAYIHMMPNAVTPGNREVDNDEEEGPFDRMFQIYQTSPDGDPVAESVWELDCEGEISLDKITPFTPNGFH
T1 sequence (P28566 whole entry): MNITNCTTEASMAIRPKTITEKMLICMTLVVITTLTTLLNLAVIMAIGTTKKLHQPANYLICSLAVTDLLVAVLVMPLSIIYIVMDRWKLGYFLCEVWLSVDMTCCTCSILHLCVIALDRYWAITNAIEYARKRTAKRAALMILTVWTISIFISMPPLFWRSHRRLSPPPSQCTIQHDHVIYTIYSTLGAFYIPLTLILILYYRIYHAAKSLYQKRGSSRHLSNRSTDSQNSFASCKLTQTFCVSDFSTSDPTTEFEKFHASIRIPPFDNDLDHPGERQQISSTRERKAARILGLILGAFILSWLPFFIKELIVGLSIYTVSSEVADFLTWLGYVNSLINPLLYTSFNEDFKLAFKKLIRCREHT
T15 sequence (Q99720 whole entry): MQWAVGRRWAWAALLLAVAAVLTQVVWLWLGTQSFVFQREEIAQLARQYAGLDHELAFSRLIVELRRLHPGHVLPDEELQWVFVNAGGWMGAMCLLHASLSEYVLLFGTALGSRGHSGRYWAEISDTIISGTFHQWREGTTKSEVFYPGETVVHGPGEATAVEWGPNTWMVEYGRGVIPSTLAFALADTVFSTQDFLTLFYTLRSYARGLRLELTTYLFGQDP
T4 sequence (P20309 whole entry): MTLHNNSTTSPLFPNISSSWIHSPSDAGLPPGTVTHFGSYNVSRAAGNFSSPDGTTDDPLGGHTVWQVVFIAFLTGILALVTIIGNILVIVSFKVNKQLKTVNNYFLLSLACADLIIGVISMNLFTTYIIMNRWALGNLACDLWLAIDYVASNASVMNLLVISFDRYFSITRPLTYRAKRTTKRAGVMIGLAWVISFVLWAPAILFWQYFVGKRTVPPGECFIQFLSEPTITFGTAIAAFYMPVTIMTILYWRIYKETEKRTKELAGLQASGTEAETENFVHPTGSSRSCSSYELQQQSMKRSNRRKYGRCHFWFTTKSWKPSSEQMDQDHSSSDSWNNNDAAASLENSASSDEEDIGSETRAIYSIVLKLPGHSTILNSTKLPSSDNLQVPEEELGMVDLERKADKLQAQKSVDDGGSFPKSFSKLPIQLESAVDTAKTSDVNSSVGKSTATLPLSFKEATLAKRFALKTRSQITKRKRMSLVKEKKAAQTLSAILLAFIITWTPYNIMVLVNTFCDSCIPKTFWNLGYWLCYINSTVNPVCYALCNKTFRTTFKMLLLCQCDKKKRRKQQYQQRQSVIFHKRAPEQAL
T14 sequence (P25021 whole entry): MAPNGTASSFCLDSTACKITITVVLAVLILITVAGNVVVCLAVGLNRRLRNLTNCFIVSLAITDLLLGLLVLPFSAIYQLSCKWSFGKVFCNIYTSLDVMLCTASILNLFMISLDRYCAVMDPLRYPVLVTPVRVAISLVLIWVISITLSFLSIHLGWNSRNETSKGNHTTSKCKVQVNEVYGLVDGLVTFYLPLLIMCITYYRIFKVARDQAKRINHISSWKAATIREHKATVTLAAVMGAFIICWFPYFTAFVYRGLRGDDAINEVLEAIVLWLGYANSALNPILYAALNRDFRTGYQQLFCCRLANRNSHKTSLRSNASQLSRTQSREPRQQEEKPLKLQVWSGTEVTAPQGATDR

Cc1ncsc1-c1ccc([C@H](C)NC(=O)[C@@H]2C[C@@H](O)CN2C(=O)[C@@H](NC(=O)CNC(=O)c2ccc(F)c(-c3ccc(N4C[C@@H](C)N(C)[C@@H](C)C4)c(NC(=O)c4c[nH]c(=O)cc4C(F)(F)F)c3)c2)C(C)(C)C)cc1 [MS67]
inhibition at 1 µM (5-HT1E): 0.02% | inhibition at 1 µM (D4): 5.81% | inhibition at 1 µM (D5): 22.1% | inhibition at 1 µM (M3): 23.9% | inhibition at 1 µM (H3): 21.1% | inhibition at 1 µM (MOR): 21.7% | inhibition at 1 µM (NET): -8.91% | inhibition at 1 µM (SERT): 8.01% | inhibition at 1 µM (5-HT2C): 3.09% | inhibition at 1 µM (Beta3): 32% | inhibition at 1 µM (H1): 15.9% | inhibition at 1 µM (Alpha1A): 24.4% | inhibition at 1 µM (H4): 21.9% | inhibition at 1 µM (H2): 19.7% | inhibition at 1 µM (Sigma 1): 48.8% | inhibition at 1 µM (5-HT1B): 5.37% | inhibition at 1 µM (Alpha1B): 27.6% | inhibition at 1 µM (Alpha2C): 1.35% | inhibition at 1 µM (5-HT6): 13.7% | inhibition at 1 µM (5-HT7A): 12% | inhibition at 1 µM (M2): 31.1% | inhibition at 1 µM (Alpha1D): 28.5% | inhibition at 1 µM (Alpha2B): 21.1% | inhibition at 1 µM (5-HT5A): 36.6% | inhibition at 1 µM (D2): 25.5% | inhibition at 1 µM (5-HT2B): 9.31%
